Key:
[1] = clinical study in children with mild asthma: lower leg growth rate by knemometry; type: in vivo, human; settings: for lower leg growth rate: 2-week treatment, children 6 to 12 years, placebo 0.412 mm/week
Experimental: (§1) The present study was conducted to determine the effects of ciclesonide at doses intended for the use in children on lower leg growth rate and HPA function in children with mild asthma.
(§2) METHODS: In a double blind, randomized, placebo-controlled, 4-period cross-over study, 24 children, 6 to 12 years of age, received ciclesonide 40, 80 and 160 μg or placebo via HFA-MDI once daily in the evening. Each 2-week treatment period was followed by a 2-week washout. Knemometry was performed at the beginning and the end of each treatment period. Cortisol levels in 12 h overnight urine were measured at the end of each treatment period.

[2] = clinical study in children with mild asthma: HPA function, cortisol in 12 h overnight urine; type: in vivo, human; settings: 40, 80 and 160 μg once daily or placebo, 12 h overnight urine at end of each 2-week period
Experimental: as §1, §2

[3] = clinical study in children with mild asthma: tolerability; type: in vivo, human; settings: 40, 80 and 160 μg once daily, 2 weeks
Experimental: as §1, §2

[4] = cited from earlier work
[5] = cited from earlier work; remark: listed apart in the source
[6] = 40, 80 and 160 μg once daily, 2 weeks

CC(C)C(=O)OCC(=O)[C@@]12O[C@H](C3CCCCC3)O[C@@H]1C[C@H]1[C@@H]3CCC4=CC(=O)C=C[C@]4(C)[C@H]3[C@@H](O)C[C@@]12C [ciclesonide, [11β,16α(R)]-16,17-[(Cyclohexylmethylen)bis(oxy)]-11-hydroxy-21-(2-methyl-1-oxopropoxy)pregna-1,4-dien-3,20-dion]
lower leg growth rate ([1]; 40 μg once daily in the evening via HFA-MDI): 0.425 mm/week | lower leg growth rate ([1]; 80 μg once daily in the evening via HFA-MDI): 0.397 mm/week | lower leg growth rate ([1]; 160 μg once daily in the evening via HFA-MDI): 0.370 mm/week | difference in lower-leg growth rates between ciclesonide treatments and placebo [1, 6]: No statistically significant differences | dose-response effect on lower leg growth rate [1, 6]: no statistically significant dose-response effect | urinary free cortisol adjusted for creatinine, difference between treatments [2]: no difference | tolerability [3]: well tolerated | systemic activity ([4]; in vivo): low systemic activity | anti-inflammatory activity compared with budesonide ([4]; relative to budesonide): higher | systemic activity compared with budesonide ([4]; relative to budesonide): three times lower | concentration of the drug in the lungs ([5]; in vivo): high | metabolism by liver oxidases ([5]; in vivo): very high | plasma half-life ([5]; in vivo): low plasma half-life | absorption after oral administration ([5]; oral): only moderately absorbed
